This is an account of results in ChEMBL document CHEMBL1157539, “Thousands of chemical starting points for antimalarial lead identification” (Nature, 2010).

For this experiment, the system named is Plasmodium falciparum. Briefly: GSK_TCMDC: Inhibition of Plasmodium falciparum 3D7 in whole erythrocytes, using parasite LDH activity as an index of growth. In kind it is functional, organism-based. Particulars: Plasmodium falciparum, 3D7.
`CCOC(=O)CCCOc1cc(Cc2cnc(N)nc2N)cc(OC)c1OC` gave an XC50 of 239 nM.

For the compound `Cc1cc(CNCCCCCNCc2ccc(Cl)cc2)ccc1O`, the XC50 was found to be 706 nM.

For `O=C(NCCCCN1CCC(c2nc3ccccc3s2)CC1)c1cc2ccccc2[nH]1`, the XC50 turned out to be 1020 nM.

Consider `O=C(/C=C/c1ccc(Cl)c(Cl)c1)N1CCC(CCN2CCC(c3c[nH]c4cnccc34)CC2)CC1`, for which the XC50 is 119 nM.

`Oc1ccc(Cl)c2c1C(c1ccccc1)=NCC2` showed an XC50 of 540 nM.

`Cc1sc2ncnc(Sc3nnc(N)s3)c2c1C` showed an XC50 of 399 nM.

Turning to `COc1ccc2nccc(N3CCN(CCNCc4ccc5c(n4)NC(=O)CO5)CC3)c2c1`, the XC50 amounted to 1160 nM.

The compound `CCN(C)c1cc(C(=O)N[C@@H](Cc2ccccc2)[C@H](O)CNC(C)(C)c2cccc(OC)c2)cc(N2CCCC2=O)c1` had an XC50 of 73 nM.

The compound `Cc1nc(C)n(CC(=O)Nc2cccc(-c3cccc(-c4nc5cc(C(F)(F)F)ccc5[nH]4)c3)c2)n1` displayed an XC50 of 761 nM.

In turn, `N=C(N)Nc1nc(-c2cccc(NC(=O)NCC(c3ccccc3)c3ccccc3)c2)cs1` gave an XC50 of 791 nM.

In turn, `COc1cc2nc(N(C)C3CCN(Cc4ccccc4)CC3)nc(N)c2cc1OC` yielded an XC50 of 334 nM.

Regarding `COc1ccc(-c2cccc(NC(=O)c3cccc(Cl)c3)c2)cc1CNC(C)C`, the XC50 is 721 nM.

In the case of `COc1ccc(CN2CCC(CN3CC4(OC3=O)c3ccccc3-c3ccccc34)C2)c(O)c1` (stereo unspecified), the XC50 was 613 nM.

On to `CC1CCN(CC[C@H]2CCCN2S(=O)(=O)c2cccc(NC(=O)Nc3ccc(C(F)(F)F)cc3)c2)CC1`, for which the XC50 was determined as 722 nM.

For the compound `OC(CNCc1ccco1)Cn1c2ccc(Br)cc2c2cc(Br)ccc21` (stereo unspecified), the XC50 was 1070 nM.

In the case of `COc1ccc(Nc2nc(C)cc(NC3CCCC3)n2)cc1`, the XC50 came out at 872 nM.

Compound `CC(C)(C)c1ccc(N2C(N)=NC(N)=NC2(C)C)cc1Cl` registered an XC50 of 6.56 nM.

As to `CC(=O)C1=NN(c2ccc(C)cc2)C(c2cccs2)N1c1ccccc1` (stereo unspecified), the XC50 came to 338 nM.

Compound `COc1ccccc1-n1c(SCC(=O)c2ccc3c(c2)CC(=O)N3C)nnc1-c1cccs1` came in with an XC50 of 963 nM.

For the compound `Cc1cc(NC(=O)Nc2cccc(C#N)c2)c2ccccc2n1`, the XC50 came to 581 nM.

The compound `COc1ccc2ccccc2c1CCCCN1CCN(CC(c2ccc(F)cc2)N2CCN(C3CCCC3)CC2)CC1` (stereo unspecified) yielded an XC50 of 772 nM.

For `CC(=O)Oc1cc(C)ccc1C1CCN(CCCCNC(=O)c2ccc(-c3ccc(C(F)(F)F)cc3)cc2)CC1`, the XC50 was determined as 646 nM.

Turning to `OC(CN1CCN(Cc2ccccc2)CC1)Cn1c(-c2ccccc2)c(-c2ccccc2)c2ccccc21` (stereo unspecified), the XC50 is 711 nM.

The compound `O=C(N[C@@H](CC1CCCCC1)C(=O)NCCN1CCCCC1)c1ccc(O)c(-c2cccc(C(F)(F)F)c2)c1` registered an XC50 of 831 nM.

`CC(C)(CNC(=O)[C@H]1CCCN1)c1nc(-c2ccc(Cl)c(O)c2)c(-c2ccncc2)[nH]1` showed an XC50 of 1270 nM.

The compound `Cc1cc(N(C)C2CCN(C)CC2)nc(Nc2ccc(Cl)cc2)n1` gave an XC50 of 290 nM.

Compound `O=C(/C=C/c1ccc(Cl)c(Cl)c1)N1CCC2CC(N3CCC(c4c[nH]c5ccccc45)CC3)CCC2C1` (stereo unspecified) came in with an XC50 of 171 nM.

As for `COC(=O)c1cccc(CNCc2cccc(-c3cccc(-c4nc5ccccc5[nH]4)c3)c2)c1`, the XC50 stood at 504 nM.

In turn, `CN1CCN(CC(=O)Nc2ccc(-c3csc(-c4nc5ccccc5[nH]4)c3)cc2)CC1` displayed an XC50 of 1560 nM.

Compound `NCC1CCCN1Cc1ccc(-c2ccc(-c3nc4cc(C(F)(F)F)ccc4[nH]3)cc2)cc1` (stereo unspecified) yielded an XC50 of 959 nM.

Consider `O=C1CCCN1CCCNCc1ccc(-c2ccc(-c3nc4cc(F)ccc4[nH]3)cc2)cc1`, for which the XC50 stood at 603 nM.

`Brc1cc(CNCCCNc2nc3ccccc3[nH]2)sc1Br` returned an XC50 of 221 nM.

In turn, `Cc1cc(NC(=O)CCN2CCN(c3cccc(Cl)c3Cl)CC2)ccc1N1CCN(C(C)C)CC1` displayed an XC50 of 847 nM.

In turn, `C[C@H](Cc1ccc(OCCCCCCOc2ccccc2)cc1)NC[C@@H](O)c1cc(Br)no1` returned an XC50 of 883 nM.

Take `CC[C@H]1CN(Cc2ccco2)CC[C@H]1CCCc1ccnc2ccc(O)cc12`: the XC50 turned out to be 1270 nM.

For `Cc1nn(C2CCS(=O)(=O)C2)c(C)c1C1Nc2ccccc2C(=O)N1Cc1ccc2c(c1)OCO2` (stereo unspecified), the XC50 is 511 nM.

For `CCn1ccc2c(N3CCCCS3(=O)=O)cc(C(=O)N[C@@H](Cc3ccccc3)[C@H](O)CNC(C)(C)CCCC(C)C)cc21`, the XC50 was 418 nM.

`CC(C)(C)OC(=O)[C@H](CC(N)=O)NC(=O)c1ccc(-c2ccc(-c3nc4cc(C(F)(F)F)ccc4[nH]3)s2)cc1`: the XC50 was 271 nM.

In the case of `C=C[C@]1(C)C[C@@H](OC(=O)NC(=O)C2CCN(C(=O)CSc3ccccc3)CC2)[C@]2(C)[C@H](C)CC[C@]3(CCC(=O)[C@H]32)[C@@H](C)[C@@H]1O`, the XC50 worked out at 1010 nM.

For the compound `O=C(Nc1ccc([N+](=O)[O-])cc1)Nc1nc2ccc(Cl)cc2s1`, the XC50 was found to be 837 nM.

`O=C(C=Cc1cccs1)Nc1ccc(-c2nc3ccccc3[nH]2)cc1`: the XC50 was 1140 nM.

`COc1ccc2ncc(F)c(CCN3CC[C@@H](CNCc4ccc5c(c4C)OCCO5)C3)c2n1`: the XC50 was determined as 1030 nM.

`CC[C@H]1CN2CC[C@H]1C[C@H]2[C@H](O)c1cc(Cl)nc2ccc(OC)cc12` returned an XC50 of 578 nM.

`Cc1cc(-c2cccc(CNC3CCCC3)c2)ccc1S(=O)(=O)NCCN1CCCC1` came in with an XC50 of 1240 nM.

Consider `COc1ccc2nccc([C@@H](O)CN3CCC(NCc4ccc5c(c4)NC(=O)CS5)CC3)c2c1`, for which the XC50 stood at 567 nM.

In the case of `CCOc1ccccc1NC(=O)Nc1ccc2c(c1)CCN(C1CCC1)CC2`, the XC50 is 1110 nM.

The compound `COc1cccc(Nc2nc(C)cc(NCc3ccc(-c4c(C)noc4C)cc3)n2)c1` registered an XC50 of 880 nM.

The compound `CC[C@H]1CN2CC[C@@H]1C[C@H]2[C@H](O)c1cc(-c2ccccc2)nc2ccc(O)cc12` yielded an XC50 of 189 nM.

Compound `CCCC(CNCc1cccc(OC(F)(F)F)c1)CNc1cc(=O)c2ccccc2[nH]1` (stereo unspecified) came in with an XC50 of 556 nM.

Regarding `Cc1[nH]cc(Br)c(=O)c1-c1ccc(Oc2ccccc2)cc1`, the XC50 was determined as 678 nM.

Turning to `CN1CCN(c2ccc(Nc3c(C(N)=O)cnc4cc(-c5ccoc5)ccc34)cc2)CC1`, the XC50 was found to be 806 nM.

`COc1ccc(NC(=O)CCNc2cc(C)nc(NCCc3ccc(F)cc3)n2)cc1` displayed an XC50 of 848 nM.

`CCOC(C(=O)OCC1CCCN(C)C1)(c1ccccc1)c1ccccc1` (stereo unspecified) showed an XC50 of 868 nM.

For the compound `CN1CCN(Cc2ccc(-c3ccc4ncnc(Nc5ccc(OCc6ccccc6)cc5)c4c3)o2)CC1`, the XC50 came to 689 nM.

Take `CCOc1ccc(Br)cc1/C=C/C(=O)Nc1ccc(C2CCN(C)CC2)cc1`: the XC50 worked out at 450 nM.

With `N#Cc1cccc(NC(=O)Nc2ccc(CC(=O)N3CCc4cc(Cl)c(N5CCN(C/C=C/c6ccccc6)CC5)cc43)cc2)c1`, the XC50 came out at 875 nM.

For the compound `N#Cc1ccc(-c2cnc3ccc(NCCc4cccnc4)nn23)cc1`, the XC50 stood at 255 nM.

`COc1cc(Nc2nccc(Nc3ccc4c(C)n[nH]c4c3)n2)cc2ccccc12` returned an XC50 of 699 nM.

In turn, `CCCCC(=O)Nc1nc2ccc([N+](=O)[O-])cc2s1` gave an XC50 of 756 nM.

Compound `CSc1nc2nc(C)c(Cc3cccc(F)c3)c(C)n2n1` registered an XC50 of 904 nM.

As to `CCOC(=O)N/N=C/[C@H](CCc1ccccc1)NC(=O)[C@H](CC(C)C)NC(=O)c1cc2cccc(OC)c2o1`, the XC50 amounted to 880 nM.

For `COc1ccc(CNCCc2cccs2)cc1-c1ccc(OC)c(S(=O)(=O)NCCN2CCCC2)c1`, the XC50 turned out to be 1410 nM.

Take `c1ccc(CCNCc2ccc(-c3cccc(CNc4ccc5ncccc5c4)c3)cc2)cc1`: the XC50 amounted to 926 nM.

Compound `CC(C)COc1ccc(Cl)cc1Cc1ccc(-c2nc3cnc4ccccc4c3[nH]2)o1` gave an XC50 of 1260 nM.

Take `C=C[C@]1(C)C[C@@H](OC(=O)c2cncn(COC)c2=O)[C@]2(C)[C@H](C)CC[C@]3(CCC(=O)[C@H]32)[C@@H](C)[C@@H]1O`: the XC50 was found to be 878 nM.

For the compound `Cc1cc2nc(-c3ccc(/C=C/C(=O)NCc4ccc(Cl)c(Cl)c4)cc3)[nH]c2cc1C`, the XC50 turned out to be 824 nM.

`N=C1NC(c2ccccc2)(c2ccccc2)C(=O)N1CC=Cc1ccccc1` gave an XC50 of 598 nM.

In turn, `COc1ccccc1CCNc1nc(C)cc(N[C@@H](CC(C)C)C(=O)NCc2cccc(F)c2)n1` yielded an XC50 of 973 nM.

Regarding `CC1CCCCN1Cc1cccc(-c2c[nH]c3nc(NC4CCCC4)ncc23)c1` (stereo unspecified), the XC50 was 1310 nM.

`CC=CC(=O)N1CCN(c2nccc(-c3ccc(C(C)(C)C)cc3)n2)CC1`: the XC50 was determined as 1080 nM.

In turn, `COc1ccc(-c2csc3ncnc(Cl)c23)cc1` yielded an XC50 of 781 nM.

In turn, `COc1cc(C2=NN(S(=O)(=O)c3c(Cl)cc(Cl)cc3Cl)CCCC2)ccc1Cl` showed an XC50 of 291 nM.

`CCCCNC(=N)c1ccc(OCCCCCOc2ccc(C(=N)NCCCC)cc2)cc1` returned an XC50 of 114 nM.

With `COc1cccc(-c2csc(C(=O)NCC3CCN(Cc4ccc(C(C)C)cc4)C3)c2)c1` (stereo unspecified), the XC50 was 1390 nM.

As to `Cc1cccc2nc(-c3cccc(-c4cccc(CNCc5cnn(-c6ccccc6)n5)c4)c3)[nH]c12`, the XC50 is 663 nM.

As to `COc1ccc(CNCCc2cccs2)cc1-c1cccc(S(=O)(=O)NCCN2CCCC2)c1`, the XC50 amounted to 877 nM.

Regarding `COc1ccc(NC(=O)[C@H](CC(C)C)Nc2cc(C)nc(NCC3CCCCC3)n2)cc1`, the XC50 worked out at 1100 nM.

Compound `CC(C)(C)CCN1CCC(CNC(=O)c2cc(-c3cccc(Cl)c3)cs2)C1` (stereo unspecified) displayed an XC50 of 819 nM.

For the compound `CCCCCCCN(CCCCCCC)CCCC(=O)Nc1ccnc2ccc(OC)cc12`, the XC50 was 154 nM.

The compound `COc1cc(C)nc2ccc(NC(=O)Nc3ccc4nc(C)cc(OC)c4c3)cc12` registered an XC50 of 548 nM.

`Cc1ccc(O)cc1Nc1ccnc2cc(-c3cccc(CNCCS(C)(=O)=O)c3)ccc12` had an XC50 of 836 nM.

On to `Cc1ccc(Cc2c[nH]c(NCCSCc3ccc(CN(C)C)s3)nc2=O)cn1`, for which the XC50 stood at 860 nM.

For `NCCCCNc1cc(-c2ccnc(Nc3cccc(Cl)c3)n2)ccn1`, the XC50 worked out at 284 nM.

Consider `CCCN(c1ccc(C(F)(F)F)cc1[N+](=O)[O-])S(=O)(=O)C(c1ccccc1)c1ccc(C(F)(F)F)cc1[N+](=O)[O-]` (stereo unspecified), for which the XC50 was 1220 nM.

Consider `CCN(CCCN1CCCCC1)c1cc(C)nc(Nc2ccc(C(C)C)cc2)n1`, for which the XC50 turned out to be 543 nM.

As for `O=C(CCc1c[nH]cn1)Nc1cccc(-c2cccc(-c3nc4ccccc4[nH]3)c2)c1`, the XC50 amounted to 660 nM.
